Assay results from patent US11882828B2, “Mosquito vector control compositions, methods and products utilizing same” (priority 2015, dated 2024).

Legend:
[1] = system: Aedes aegypti (Yellow fever mosquito); experiment: whole plant or invertebrate; settings: Aedes aegypti
Description: […] Once the deposits were dry, five non-blood fed adult female Aedes aegypti (between two to five days old) were added to each well, and sustained with a 10% sucrose solution in a cotton wool plug. Assessment of the knockdown after 1 hour, and mortality after 48 hours was carried out.
(§1) In case of multiple tests, the mean value is reported.

[2] = system: Anopheles stephensi (Indian malaria mosquito); experiment: whole plant or invertebrate; settings: Anopheles stephensi
Description: […] Once the deposits were dry, five non-blood fed adult female Anopheles stephensi (between two to five days old) were added to each well, and sustained with a 10% sucrose solution in a cotton wool plug. Assessment of the knockdown after 1 hour, and mortality after 48 hours was carried out.
as §1

Aedes aegypti [3] = experiment: whole plant or invertebrate; settings: Aedes aegypti, 48 h
Summary of the method: (§2)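 Non-blood-fed adult females (2–5 days old), ten per well, were placed on dried ethanol deposits of the test compound at a defined concentration and fed 10% sucrose. Mortality was scored at 48 hours as the mean of two replicates.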

Anopheles stephensi [4] = experiment: whole plant or invertebrate; settings: Anopheles stephensi, 48 h
Summary of the method: as §2

Ae. Aegypti New Orleans = experiment: Example B4: cross resistance study, 6-well plate; format: in vivo
Description: (§3) In each study, a set of plates were infested with a known insecticide susceptible strain of mosquitoes from the same genera as the resistant strains.
(§4) Assessment of the knockdown after 60 minutes and mortality after 24 hours was carried out. Each treatment was replicated a minimum of four times, with the mean knockdown or mortality recorded.
(§5) A comparison of the knockdown and mortality of the resistant strain of mosquitoes was made to that of the susceptible to identify evidence of cross resistance.

Ae. aegypti Caymon = experiment: Example B4: cross resistance study, 6-well plate; format: in vivo
Description: as §3, §4, §5

An. Arabiensis Moz sus = experiment: Example B4: cross resistance study, 6-well plate; format: in vivo
Description: as §3, §4, §5

An. Gambiae Kisumu rdl = experiment: Example B4: cross resistance study, 6-well plate; format: in vivo
Description: as §3, §4, §5

An. Gambiae Kisumu sus = experiment: Example B4: cross resistance study, 6-well plate; format: in vivo
Description: as §3, §4, §5

An. Gambiae Tiassalé = experiment: Example B4: cross resistance study, 6-well plate; format: in vivo
Description: as §3, §4, §5

An. stephensi = experiment: Example B4: cross resistance study, 6-well plate; format: in vivo
Description: as §3, §4, §5

Aedes aegypti [5] = experiment: Example B7: evaluation of insecticide impregnated polymer surfaces; format: in vivo; settings: AI content 2 wt %, polymer 4 to 6 weeks old; for mortality: 24 hours after exposure; for knock-down: after one hour
Summary of the method: (§6)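 Methoxyacrylates were melt-blended into LDPE, HDPE or PP and moulded into sheets about 0.1 mm thick. Ten 3–5-day-old non-blood-fed adult females were held 24 h on 10% sucrose, then confined in a Petri dish under the treated sheet for 1 h. Knockdown was scored at 1 h and mortality 24 h after exposure.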

Anopheles stephensi [6] = experiment: as above; format: in vivo; settings: AI content 2 wt %; for mortality: 24 hours after exposure; for knock-down: after one hour
Summary of the method: as §6

## CO/C=C(/C(=O)OC)c1ccccc1Oc1nc(C(C)(C)C)ns1 [Compound 7, Methyl (E)-2-[2-[(3-tert-butyl-1,2,4-thiadiazol-5-yl)oxy]phenyl]-3-methoxy-prop-2-enoate]
[1]; 1 h, read-out: Knockdown
  pest or weed control at 20 ppm: 100%
[1]; 48 h
  mortality at 20 ppm: 100%
[2]; 1 h, read-out: Knockdown
  pest or weed control at 20 ppm: 67%
[2]; 48 h
  mortality at 20 ppm: 100%
Aedes aegypti [3]
  mortality at 5 ppm: 78%
Anopheles stephensi [4]
  mortality at 5 ppm: 95%
Ae. Aegypti New Orleans; 2.50 ppm, after 60 minutes, New Orleans
  Knockdown: 38%
Ae. Aegypti New Orleans; Aedes aegypti, 24 h
  mortality at 2.5 ppm: 100%
Ae. aegypti Caymon; 2.50 ppm, after 60 minutes, Caymon
  Knockdown: 52%
Ae. aegypti Caymon; Aedes aegypti, 24 h
  mortality at 2.5 ppm: 28%
An. Arabiensis Moz sus; 2.50 ppm, after 60 minutes, Moz sus
  Knockdown: 95%
An. Arabiensis Moz sus; Anopheles arabiensis, 24 h
  mortality at 2.5 ppm: 100%
An. Gambiae Kisumu rdl; 2.50 ppm, after 60 minutes, Kisumu rdl
  Knockdown: 90%
An. Gambiae Kisumu rdl; Anopheles gambiae, 24 h
  mortality at 2.5 ppm: 100%
An. Gambiae Kisumu sus; 2.50 ppm, after 60 minutes, Kisumu sus
  Knockdown: 100%
An. Gambiae Kisumu sus; Anopheles gambiae, 24 h
  mortality at 2.5 ppm: 100%
An. Gambiae Tiassalé; 2.50 ppm, after 60 minutes, Tiassalé
  Knockdown: 90%
An. Gambiae Tiassalé; Anopheles gambiae, 24 h
  mortality at 2.5 ppm: 85%
An. stephensi; 2.50 ppm, after 60 minutes, An. stephensi
  Knockdown: 40%
An. stephensi; Anopheles stephensi, 24 h
  mortality at 2.5 ppm: 100%
Aedes aegypti [5]; HDPE
  mortality: 47%
  knock-down: 83%
Aedes aegypti [5]; LDPE
  mortality: 97%
  knock-down: 100%
Aedes aegypti [5]; PP
  mortality: 23%
  knock-down: 67%
Anopheles stephensi [6]; HDPE, polymer 4 to 6 weeks old
  mortality: 87%
  knock-down: 93%
Anopheles stephensi [6]; HDPE, polymer 6 to 8 weeks old
  mortality: 87%
  knock-down: 100%
Anopheles stephensi [6]; LDPE, polymer 4 to 6 weeks old
  mortality: 97%
  knock-down: 100%
Anopheles stephensi [6]; LDPE, polymer 6 to 8 weeks old
  mortality: 100%
  knock-down: 87%
Anopheles stephensi [6]; PP, polymer 4 to 6 weeks old
  mortality: 87%
  knock-down: 93%
Anopheles stephensi [6]; PP, polymer 6 to 8 weeks old
  mortality: 77%
  knock-down: 100%
